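A five-concentration, 48-hour dose response in 96-well plates underlies each endpoint, interpolated linearly between surrounding concentrations. Abbreviation: GI50, concentration required for 50% inhibition of growth. TGI is the concentration that stops growth completely.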
Legend:
Assay in all cases: NCI anticancer screen, dose series, 48 h
MCF7 breast = tested on: MCF7 breast
HCT-116 colon = tested on: HCT-116 colon
MDA-MB-231 breast = tested on: MDA-MB-231 breast
DU-145 prostate = tested on: DU-145 prostate
IGROV1 ovarian = tested on: IGROV1 ovarian
HL-60(TB) leukemia = tested on: HL-60(TB) leukemia
HOP-92 NSCLC = tested on: HOP-92 NSCLC
HCT-15 colon = tested on: HCT-15 colon
CCRF-CEM leukemia = tested on: CCRF-CEM leukemia
HT29 colon = tested on: HT29 colon

| SMILES | GI50 (MCF7 breast) | TGI (MCF7 breast) | GI50 (HCT-116 colon) | TGI (HCT-116 colon) | GI50 (MDA-MB-231 breast) | TGI (MDA-MB-231 breast) | GI50 (DU-145 prostate) | TGI (DU-145 prostate) | GI50 (IGROV1 ovarian) | TGI (IGROV1 ovarian) | GI50 (HL-60(TB) leukemia) | TGI (HL-60(TB) leukemia) | GI50 (HOP-92 NSCLC) | TGI (HOP-92 NSCLC) | GI50 (HCT-15 colon) | TGI (HCT-15 colon) | GI50 (CCRF-CEM leukemia) | TGI (CCRF-CEM leukemia) | GI50 (HT29 colon) | TGI (HT29 colon) |
| --- | --- | --- | --- | --- | --- | --- | --- | --- | --- | --- | --- | --- | --- | --- | --- | --- | --- | --- | --- | --- |
| NC(=O)c1ccccc1NC(=O)c1ccccc1Cl | > 100 µM | > 100 µM | > 100 µM | > 100 µM | > 100 µM | > 100 µM | > 100 µM | > 100 µM | > 100 µM | > 100 µM | > 100 µM | > 100 µM | 60.7 µM | > 100 µM | > 100 µM | > 100 µM | > 100 µM | > 100 µM | > 100 µM | > 100 µM |
| Nc1nccc2c1ncn2C1OC(CO)C(O)C1O (stereo not given) | 52 µM | > 100 µM | 39.2 µM | > 100 µM | > 100 µM | > 100 µM | > 100 µM | > 100 µM | 44.7 µM | > 100 µM | > 100 µM | > 100 µM | 92.2 µM | > 100 µM | 75.8 µM | > 100 µM | > 100 µM | > 100 µM | > 100 µM | > 100 µM |
| CCC1(NC(=O)c2cc(F)c(F)c(F)c2F)C(=O)NC(=O)N(C(C)C)C1=O (stereo not given) | > 100 µM | > 100 µM | 22.5 µM | 51.5 µM | 19.3 µM | 48.7 µM | 33.7 µM | > 100 µM | 10.4 µM | 28.7 µM | 3.82 µM | 24.9 µM | 17.4 µM | 63.7 µM | 8.05 µM | > 100 µM | 19.8 µM | 75.3 µM | 22.6 µM | > 100 µM |
| COc1ccc(-c2cc(-c3cccc(NS(C)(=O)=O)c3)nc(N)c2C#N)cc1 | 0.348 µM | 25.3 µM | 0.0496 µM | 8.73 µM | 0.335 µM | 5.14 µM | 0.164 µM | 8.82 µM | 0.119 µM | > 34.8 µM | 0.0637 µM | 1.26 µM | 3.38 µM | 48.7 µM | 0.108 µM | 19.4 µM | 0.0875 µM | > 100 µM | 0.0382 µM | 0.731 µM |
